These are literature values, as cited in patent US6599527B1, “Preparation of pharmaceutical compositions” (Phares Pharmaceutical Research N.V., priority 1997, dated 2003).

For the series the following is noted: in vivo.

Turning to “phosphatidylcholine [phosphatidylcholine (PC)]”, the “fraction entering the GI tract that is absorbed” value was “Over 90%”.
